According to ChEMBL document CHEMBL3351798, “Discovery of the CCR1 antagonist, BMS-817399, for the treatment of rheumatoid arthritis” (J Med Chem, 2014):
Calls of active or inactive are those of the source. The calls are words filed in the database; no cut-off is given here.

Key:
[1] = Displacement of [125I]hMIP-1alpha from rat CCR1
[2] = biological target: T1, C-C chemokine receptor type 1 (Homo sapiens, UniProt P32246); assay: Antagonist activity at CCR1 receptor in human whole blood assessed as blocked of LKN1-mediated CD11b upregulation preincubated for 1 hr
T1 sequence (P32246 whole entry): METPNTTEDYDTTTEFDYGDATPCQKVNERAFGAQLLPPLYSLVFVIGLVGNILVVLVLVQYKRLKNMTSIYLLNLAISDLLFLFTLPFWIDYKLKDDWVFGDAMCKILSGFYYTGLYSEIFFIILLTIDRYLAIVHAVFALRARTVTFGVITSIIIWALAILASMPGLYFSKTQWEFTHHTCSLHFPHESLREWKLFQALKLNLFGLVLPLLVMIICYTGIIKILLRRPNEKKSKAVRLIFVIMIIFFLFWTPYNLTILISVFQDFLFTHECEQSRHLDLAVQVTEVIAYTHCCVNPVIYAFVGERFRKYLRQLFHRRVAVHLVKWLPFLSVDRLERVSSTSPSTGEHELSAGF

[3] = Bioavailability in cynomolgus monkey at 5 mg/kg; type: ADME, organism-based, Macaca fascicularis; conditions: in vivo
[4] = Bioavailability in mouse at 5 mg/kg; type: ADME, organism-based; conditions: in vivo
[5] = biological target: C-C chemokine receptor type 5 (Homo sapiens) (UniProt P51681); assay: Binding affinity to CCR5 receptor (unknown origin)
C-C chemokine receptor type 5 (Homo sapiens), sequence (P51681 whole entry, looked up): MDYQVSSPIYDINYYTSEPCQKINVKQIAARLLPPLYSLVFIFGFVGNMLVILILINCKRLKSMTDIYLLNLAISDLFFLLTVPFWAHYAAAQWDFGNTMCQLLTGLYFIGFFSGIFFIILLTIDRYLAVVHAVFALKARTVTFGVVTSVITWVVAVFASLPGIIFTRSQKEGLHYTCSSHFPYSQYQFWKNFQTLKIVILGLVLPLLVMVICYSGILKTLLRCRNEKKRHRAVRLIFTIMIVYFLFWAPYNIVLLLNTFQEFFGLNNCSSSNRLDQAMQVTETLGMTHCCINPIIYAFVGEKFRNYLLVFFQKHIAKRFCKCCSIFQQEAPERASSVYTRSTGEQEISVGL

[6] = Bioavailability in rat at 5 mg/kg; type: ADME, organism-based; conditions: in vivo
[7] = Metabolic stability in rat liver microsomes assessed as compound remaining at 0.5 uM after 60 mins by UV-LC/MS analysis; type: ADME; conditions: read-out: Stability
[8] = biological target: T2, Nuclear receptor subfamily 1 group I member 2 (Homo sapiens, UniProt O75469); assay: Transactivation of human full-length PXR transfected in human HepG2 cells after 24 hrs by luciferase reporter gene assay; type: cell-based
T2 sequence (O75469 whole entry): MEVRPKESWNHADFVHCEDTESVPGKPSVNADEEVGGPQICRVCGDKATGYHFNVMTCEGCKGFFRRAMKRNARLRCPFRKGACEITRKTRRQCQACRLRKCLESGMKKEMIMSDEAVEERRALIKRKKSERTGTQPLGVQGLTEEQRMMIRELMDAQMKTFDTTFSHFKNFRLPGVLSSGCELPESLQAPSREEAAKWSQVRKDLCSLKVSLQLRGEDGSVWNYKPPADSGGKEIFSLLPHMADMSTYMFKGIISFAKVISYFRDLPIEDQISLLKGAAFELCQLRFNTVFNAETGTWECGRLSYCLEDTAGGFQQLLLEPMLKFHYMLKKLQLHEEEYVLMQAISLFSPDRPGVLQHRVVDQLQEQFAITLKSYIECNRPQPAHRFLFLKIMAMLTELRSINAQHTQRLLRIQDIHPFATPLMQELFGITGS

[9] = biological target: T3, C-C chemokine receptor type 3 (Homo sapiens) (UniProt P51677); assay: Binding affinity to CCR3 receptor (unknown origin)
T3 sequence (whole entry): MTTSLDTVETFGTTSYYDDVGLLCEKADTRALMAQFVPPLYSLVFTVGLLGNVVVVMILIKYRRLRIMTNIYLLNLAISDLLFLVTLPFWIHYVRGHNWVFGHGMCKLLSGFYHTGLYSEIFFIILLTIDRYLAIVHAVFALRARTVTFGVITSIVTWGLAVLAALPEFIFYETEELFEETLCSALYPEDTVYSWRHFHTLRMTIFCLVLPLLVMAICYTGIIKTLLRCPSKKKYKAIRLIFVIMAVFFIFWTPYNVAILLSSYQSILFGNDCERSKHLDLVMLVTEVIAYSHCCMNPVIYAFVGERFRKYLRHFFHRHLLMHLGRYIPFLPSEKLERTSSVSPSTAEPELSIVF

[10] = biological target: T4, Chemokine (C-C motif) receptor 1 (Canis lupus familiaris, UniProt Q2V0Q7); assay: Displacement of [125I]hMIP-1alpha from dog PBMC CCR1
T4 sequence (Q2V0Q7 whole entry): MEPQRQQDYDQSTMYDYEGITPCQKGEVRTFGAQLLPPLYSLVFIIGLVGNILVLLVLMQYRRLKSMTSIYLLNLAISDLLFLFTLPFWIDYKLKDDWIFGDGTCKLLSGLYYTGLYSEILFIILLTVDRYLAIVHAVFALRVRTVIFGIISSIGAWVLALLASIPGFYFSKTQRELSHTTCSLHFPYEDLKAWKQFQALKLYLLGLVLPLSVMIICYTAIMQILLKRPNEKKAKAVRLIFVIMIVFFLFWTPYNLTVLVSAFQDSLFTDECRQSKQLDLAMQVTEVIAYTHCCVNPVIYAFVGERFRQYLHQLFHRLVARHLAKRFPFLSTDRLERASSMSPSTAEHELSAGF

[11] = biological target: T5, C-X-C chemokine receptor type 5 (Homo sapiens) (UniProt P32302); assay: Binding affinity to CXCR5 receptor (unknown origin)
T5 sequence (whole entry): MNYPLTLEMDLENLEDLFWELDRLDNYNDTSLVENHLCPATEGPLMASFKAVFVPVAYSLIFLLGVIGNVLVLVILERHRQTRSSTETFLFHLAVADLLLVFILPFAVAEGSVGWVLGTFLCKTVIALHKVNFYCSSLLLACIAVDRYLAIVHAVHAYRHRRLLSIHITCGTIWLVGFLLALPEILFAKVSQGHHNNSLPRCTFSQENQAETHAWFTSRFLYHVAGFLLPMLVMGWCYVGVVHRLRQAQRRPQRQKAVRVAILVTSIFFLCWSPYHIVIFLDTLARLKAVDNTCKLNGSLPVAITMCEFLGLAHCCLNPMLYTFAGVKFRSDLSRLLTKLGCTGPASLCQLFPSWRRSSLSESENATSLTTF

[12] = biological target: C-C chemokine receptor type 2 (Homo sapiens) (UniProt P41597); assay: Binding affinity to CCR2 receptor (unknown origin)
C-C chemokine receptor type 2 (Homo sapiens), sequence (P41597 whole entry, looked up): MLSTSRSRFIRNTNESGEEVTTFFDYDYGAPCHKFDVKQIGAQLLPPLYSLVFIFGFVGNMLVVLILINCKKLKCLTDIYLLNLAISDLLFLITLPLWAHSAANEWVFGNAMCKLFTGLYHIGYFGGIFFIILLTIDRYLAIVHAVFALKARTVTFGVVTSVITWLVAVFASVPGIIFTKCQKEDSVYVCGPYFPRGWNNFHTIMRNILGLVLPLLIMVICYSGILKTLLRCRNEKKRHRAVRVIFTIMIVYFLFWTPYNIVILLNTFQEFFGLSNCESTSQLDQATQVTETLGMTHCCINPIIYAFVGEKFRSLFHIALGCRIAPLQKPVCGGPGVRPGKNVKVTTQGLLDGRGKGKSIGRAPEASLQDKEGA

[13] = biological target: T6, C-C chemokine receptor type 1 (Mus musculus, UniProt P51675); assay: Displacement of [125I]hMIP-1alpha from mouse CCR1
T6 sequence (P51675 whole entry): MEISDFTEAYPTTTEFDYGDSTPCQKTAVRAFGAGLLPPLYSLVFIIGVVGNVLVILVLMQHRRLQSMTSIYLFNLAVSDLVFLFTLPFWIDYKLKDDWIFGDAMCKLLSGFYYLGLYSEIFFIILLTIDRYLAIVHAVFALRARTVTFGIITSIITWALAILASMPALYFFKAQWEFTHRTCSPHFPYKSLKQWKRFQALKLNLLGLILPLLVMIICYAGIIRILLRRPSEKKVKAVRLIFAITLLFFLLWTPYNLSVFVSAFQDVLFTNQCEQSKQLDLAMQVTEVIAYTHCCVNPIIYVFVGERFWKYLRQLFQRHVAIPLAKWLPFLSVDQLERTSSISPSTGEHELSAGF

[14] = Unbound fraction in human serum; type: ADME, cell-free
[15] = Displacement of [125I]hMIP-1alpha from monkey PBMC CCR1; parameters: species or system Macaca mulatta
[16] = biological target: T1, C-C chemokine receptor type 1; assay: Displacement of [125I]hMIP-1alpha from CCR1 in human PBMC
Homo sapiens = species on record: Homo sapiens; assay: Inhibition of Ca+ channel (unknown origin)
[17] = Bioavailability in dog at 5 mg/kg; type: ADME, organism-based, Canis lupus familiaris; conditions: in vivo
[18] = biological target: Voltage-gated inwardly rectifying potassium channel KCNH2 (Homo sapiens, UniProt Q12809); assay: Inhibition of human ERG
Voltage-gated inwardly rectifying potassium channel KCNH2, sequence (Q12809 whole entry): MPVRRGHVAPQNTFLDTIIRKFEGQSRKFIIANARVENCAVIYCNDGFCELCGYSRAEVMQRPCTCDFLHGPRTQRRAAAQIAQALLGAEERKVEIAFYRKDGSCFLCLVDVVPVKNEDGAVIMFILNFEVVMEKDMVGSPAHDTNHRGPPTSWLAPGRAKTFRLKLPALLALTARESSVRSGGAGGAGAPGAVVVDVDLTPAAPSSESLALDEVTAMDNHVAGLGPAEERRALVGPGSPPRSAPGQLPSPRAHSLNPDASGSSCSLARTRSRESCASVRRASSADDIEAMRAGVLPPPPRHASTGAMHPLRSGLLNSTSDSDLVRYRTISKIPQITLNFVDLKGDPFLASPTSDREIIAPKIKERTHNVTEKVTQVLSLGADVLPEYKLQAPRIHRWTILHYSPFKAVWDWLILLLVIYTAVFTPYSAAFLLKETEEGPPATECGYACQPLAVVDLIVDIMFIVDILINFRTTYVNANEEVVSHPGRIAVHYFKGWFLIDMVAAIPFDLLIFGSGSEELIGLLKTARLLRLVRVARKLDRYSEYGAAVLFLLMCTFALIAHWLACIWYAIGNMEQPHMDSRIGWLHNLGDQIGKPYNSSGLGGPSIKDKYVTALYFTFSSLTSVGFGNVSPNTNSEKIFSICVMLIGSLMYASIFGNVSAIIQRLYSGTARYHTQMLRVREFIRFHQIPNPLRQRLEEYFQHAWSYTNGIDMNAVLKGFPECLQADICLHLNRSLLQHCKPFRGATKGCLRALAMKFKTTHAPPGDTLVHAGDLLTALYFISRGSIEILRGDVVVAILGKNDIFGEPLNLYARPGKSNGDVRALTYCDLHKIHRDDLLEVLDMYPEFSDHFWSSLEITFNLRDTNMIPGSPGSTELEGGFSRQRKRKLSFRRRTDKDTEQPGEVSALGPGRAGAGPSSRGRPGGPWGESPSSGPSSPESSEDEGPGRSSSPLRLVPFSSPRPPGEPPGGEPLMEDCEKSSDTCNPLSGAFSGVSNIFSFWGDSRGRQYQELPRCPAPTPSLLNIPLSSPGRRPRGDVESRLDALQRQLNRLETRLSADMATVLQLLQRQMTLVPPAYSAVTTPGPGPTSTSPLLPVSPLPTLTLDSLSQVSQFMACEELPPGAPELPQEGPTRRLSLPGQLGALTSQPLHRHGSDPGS

IC50 [1]: > 50000 nM
IC50 [2]: 42 nM
bioavailability [3]: 40%
bioavailability [4]: 79%
Activity [5]: inactive
bioavailability [6]: 46%
remaining at 1 h, 0.5 µM [7]: 74%
EC50 [8]: > 25000 nM
Activity [9]: inactive
IC50 [10]: 635 nM
Activity [11]: inactive
Activity [12]: inactive
IC50 [13]: > 50000 nM
fraction unbound [14]: 0.19
IC50 [15]: > 50000 nM
IC50 [16]: 4.2 nM
inhibition (Homo sapiens): inactive
bioavailability [17]: 100%
Structure (SMILES): CC(C)[C@@H](NC(=O)NCC(C)(C)O)C(=O)N1CC[C@](O)(c2ccc(Cl)cc2)C(C)(C)C1 [BMS-817399]
inhibition (INH) [18]: Not Active
